Assay results as given in patent US9676760B2, “Fused heterocyclic compounds as ion channel modulators” (Gilead Sciences, Inc., priority 2011, dated 2017).

What was measured:
Assay type in all cases: cell-based
[1] = target: T1, hNav 1.2 sodium channel isoform (Homo sapiens, UniProt Q99250); assay: hNav1.2 whole-cell voltage-clamp assay; settings: use-dependent block, 10 Hz, read-out: NAV1.2* UDB-10HZ
T1 construct: expressed in transfected cells
Experimental: Wild-type (WT) cDNA stably transfected in Chinese hamster ovary (CHO) cells is used to record INa. Unless otherwise noted, all reagents are purchased from Sigma-Aldrich (St Louis, Mo., U.S.A.).
Whole-cell voltage-clamp recordings are used to measure the biophysical properties of WT. […] Cells are allowed to stabilize for 10 min after establishment of the whole-cell configuration before current is measured. Series resistance is compensated 90% to assure that the command potential is reached within microseconds with a voltage error<2 mV. Leak currents are subtracted by using an online P/4 procedure and all currents are low-pass Bessel filtered at 5 kHz and digitized at 50 kHz.
For clarity, representative ramp currents are low pass filtered off-line at 50 Hz. Specific voltage-clamp protocols assessing channel activation, fast inactivation and availability during repetitive stimulation are used. Results are presented as mean±SEM.
Tonic block of peak current is measured using a step to −10 mV (20 ms) from a holding potential of −120 mV (0.2 Hz). Use-dependent block of peak current is measured during pulse number 300 of a pulse train (−10 mV, 5 ms, 300 pulses, 10 Hz or 25 Hz) from a holding potential of −120 mV. Two sequential pulse train stimulations are averaged to obtain mean current traces for each recording condition, which are then used for offline subtraction and analysis.
For use-dependent studies, cells are stimulated with depolarizing pulse trains (−10 mV, 5 ms, 300 pulses, 10 and 25 Hz) from a holding potential of −120 mV. Currents are then normalized to the peak current recorded in response to the first pulse in each frequency train. For tonic block studies, peak current is evaluated in response to a 20 ms depolarization to −10 mV (0.2 Hz). […] Results are presented as mean±SEM.
A stock solution of 10 mM compound of Formula I is prepared in 0.1 M HCl or DMSO. […] The final DMSO concentration was kept at 0.1% in all solutions. Direct application of the perfusion solution to the clamped cell is achieved using the Perfusion Pencil system (Automate, Berkeley, Calif.). Direct cell perfusion is driven by gravity at a flow rate of 350 μL/min using a 250 micron tip. This system sequesters the clamped cell within a perfusion stream and enables complete solution exchange within 1 second. The clamped cell is perfused continuously starting immediately after establishing the whole-cell configuration. Control currents are measured during control solution perfusion.
Solutions are perfused for three minutes prior to current recordings to allow equilibrium (tonic) drug block. Tonic block of peak currents is measured from this steady-state condition. Three sequential current traces are averaged to obtain a mean current for each recording. The mean current traces are utilized for offline analysis. Use-dependent block of peak current is measured during pulse number 300 of the pulse train, (−10 mV, 5 ms, 300 pulses, 10 Hz) from a holding potential of −120 mV.

[2] = target: T2, wild-type human cardiac sodium channel, hNav1.5 (Homo sapiens, UniProt Q14524); assay: Late INa screening assay (QPatch whole cell patch clamp, HEK293)
T2 sequence (Q14524 whole entry): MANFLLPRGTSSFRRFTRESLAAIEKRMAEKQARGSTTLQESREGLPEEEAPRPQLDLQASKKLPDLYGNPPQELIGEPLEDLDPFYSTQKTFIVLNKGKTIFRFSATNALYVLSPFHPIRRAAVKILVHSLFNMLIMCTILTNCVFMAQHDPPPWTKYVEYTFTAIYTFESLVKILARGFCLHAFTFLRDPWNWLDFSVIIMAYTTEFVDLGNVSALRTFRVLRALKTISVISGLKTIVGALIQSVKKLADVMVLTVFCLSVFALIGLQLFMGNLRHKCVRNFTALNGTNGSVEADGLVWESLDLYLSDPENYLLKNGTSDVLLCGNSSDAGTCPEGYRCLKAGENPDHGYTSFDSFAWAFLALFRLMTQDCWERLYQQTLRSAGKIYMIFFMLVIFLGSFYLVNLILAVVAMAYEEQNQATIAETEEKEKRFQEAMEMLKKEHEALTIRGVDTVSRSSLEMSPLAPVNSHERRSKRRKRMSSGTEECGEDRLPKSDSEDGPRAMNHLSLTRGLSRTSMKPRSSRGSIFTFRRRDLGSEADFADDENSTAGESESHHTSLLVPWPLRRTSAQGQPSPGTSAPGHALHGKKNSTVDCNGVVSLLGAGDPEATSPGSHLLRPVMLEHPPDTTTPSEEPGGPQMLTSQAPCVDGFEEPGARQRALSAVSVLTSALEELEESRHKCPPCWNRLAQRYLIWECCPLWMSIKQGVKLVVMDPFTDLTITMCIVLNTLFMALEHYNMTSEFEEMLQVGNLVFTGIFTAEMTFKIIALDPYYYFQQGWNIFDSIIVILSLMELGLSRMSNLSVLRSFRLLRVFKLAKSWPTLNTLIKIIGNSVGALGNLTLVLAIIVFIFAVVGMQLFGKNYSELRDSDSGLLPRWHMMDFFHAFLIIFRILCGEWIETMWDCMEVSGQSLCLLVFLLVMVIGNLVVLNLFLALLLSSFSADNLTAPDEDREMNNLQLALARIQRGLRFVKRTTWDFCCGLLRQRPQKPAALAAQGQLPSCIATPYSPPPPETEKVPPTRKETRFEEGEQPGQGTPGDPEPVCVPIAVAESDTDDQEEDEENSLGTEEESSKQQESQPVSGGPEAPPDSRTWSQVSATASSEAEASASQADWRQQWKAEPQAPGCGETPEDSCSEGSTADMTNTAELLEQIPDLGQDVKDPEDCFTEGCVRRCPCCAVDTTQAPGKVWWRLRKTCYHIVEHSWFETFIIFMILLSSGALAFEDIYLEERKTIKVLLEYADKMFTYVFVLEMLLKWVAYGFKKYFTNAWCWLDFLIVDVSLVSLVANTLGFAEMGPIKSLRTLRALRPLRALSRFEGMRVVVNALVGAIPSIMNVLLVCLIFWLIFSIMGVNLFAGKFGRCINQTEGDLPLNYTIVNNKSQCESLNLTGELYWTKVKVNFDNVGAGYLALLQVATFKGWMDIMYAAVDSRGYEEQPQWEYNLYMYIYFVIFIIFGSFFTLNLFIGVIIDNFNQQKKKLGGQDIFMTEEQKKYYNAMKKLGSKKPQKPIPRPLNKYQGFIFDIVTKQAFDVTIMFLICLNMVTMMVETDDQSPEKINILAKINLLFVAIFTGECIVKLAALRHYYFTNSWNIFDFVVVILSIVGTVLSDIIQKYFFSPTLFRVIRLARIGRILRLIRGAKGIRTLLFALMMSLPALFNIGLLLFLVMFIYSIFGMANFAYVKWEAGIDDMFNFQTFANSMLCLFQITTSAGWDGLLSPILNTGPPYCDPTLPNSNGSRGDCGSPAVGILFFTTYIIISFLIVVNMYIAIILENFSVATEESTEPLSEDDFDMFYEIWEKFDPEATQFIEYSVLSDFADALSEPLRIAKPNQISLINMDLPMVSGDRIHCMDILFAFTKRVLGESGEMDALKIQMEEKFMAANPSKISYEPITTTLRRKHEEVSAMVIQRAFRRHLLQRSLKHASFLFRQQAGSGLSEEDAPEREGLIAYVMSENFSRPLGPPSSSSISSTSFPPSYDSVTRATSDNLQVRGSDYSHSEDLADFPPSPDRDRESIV
How it was run: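 HEK293 stably expressing hNav1.5 without beta subunits, recorded at 23-25° C. Late current was induced by 10 μM tefluthrin. Cells were depolarized from −120 mV to −20 mV for 250 ms at 0.1 Hz. Compounds were tested at 1 μM in extracellular solution, with baseline taken in 0Na-ECF; output is percent block of late INa.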

[3] = target: T2, wild-type human cardiac sodium channel, hNav1.5; assay: Peak INa screening assay (tonic and use-dependent block); settings: compound at 1 μM
Experimental: The late sodium current (Late INa) and peak sodium current (Peak INa) assays are performed on an automated electrophysiology platform, QPatch 16× (Sophion Bioscience, Copenhagen, Denmark), which uses the whole cell patch clamp technique to measure currents through the cell membrane of up to 16 cells at a time. The assay uses an HEK293 (human embryonic kidney) cell line heterologously expressing the wild-type human cardiac sodium channel, hNav1.5, purchased from Millipore (Billerica, Mass.). No beta subunits were coexpressed with the Na channel alpha subunit. Cells are maintained with standard tissue culture procedures and stable channel expression is maintained with 400 μg/mL Geneticin in the culture medium. Cells isolated for use on QPatch are incubated for 5 minutes in Detachin 1×(Genlantis, San Diego, USA) at 37° C. to ensure that 80-90% of the cells are single and not part of a cell cluster. Experiments are carried out at 23-25° C.
For both the Late INa and Peak INa assays, series resistance compensation is set to 100% and series resistance and whole-cell compensation are performed automatically. Currents are digitized at 25 kHz and low-pass filtered at 12 kHz and 10 kHz for the late and peak INa assays, respectively. Currents through open sodium channels are automatically recorded and stored in the Sophion Bioscience Oracle database (Sophion Bioscience, Copenhagen, Denmark). Analysis is performed using QPatch Assay and database software and data are compiled in Excel.
Compound stocks are routinely made by the Gilead Sample Bank in plastic vials to 10 mM in dimethyl sulfoxide (DMSO). In some cases, when compounds are not soluble in DMSO, they are made in 100% ethanol. Stocks are sonicated as necessary. The extracellular solution for screening Late INa is composed of: 140 mM NaCl, 4 mM KCl, 1.8 mM CaCl2, 0.75 mM MgCl2 and 5 mM HEPES with pH adjusted to 7.4 using NaOH. The intracellular solution used to perfuse the inside of the cells for both the Late INa and Peak INa assays contains: 120 mM CsF, 20 mM CsCl, 5 mM EGTA, 5 mM HEPES and pH adjusted to 7.4 with CsOH. Compounds are diluted in extracellular solution to 1 μM in glass vials and then transferred to glass well plates before robotic addition to the cells. The 0 mM Na extracellular solution (0Na-ECF) used at the end of each experiment for the Late INa and Peak INa assays to measure baseline current contains: 140 mM N-methyl-D-glucamine; 4 mM KCl; 1.8 mM CaCl2; 0.75 mM MgCl2; 5 mM HEPES and pH was adjusted to 7.4 with HCl.
Compounds were also evaluated for their effect in several other assays, including their effect on Peak INa. […] Since the peak INa in the cells used herein can be very large, introducing artifacts in the recording, the concentration of Na^+ in the bath can be reduced to 20 mM and a nonpermeant cation added to compensate for the Na^+ that was removed to maintain the osmolarity and ionic strength of the solution (see solution details below).
A low stimulation frequency of 0.1 Hz was used to determine the effect of the test compound when the channel spent most of the time in the resting (closed) state and provides information about Tonic Block (TB). A higher stimulation frequency (3 Hz) was used to measure block of the channel when it spent more time in the activated and inactivated states and provided a measure of Use-Dependent Block (UDB). Use-dependent block refers to the accumulation of block with increased frequency of channel activation.

[4] = target: T3, hNav 1.1 sodium channel isoform (Homo sapiens, UniProt P35498); assay: hNav1.1 whole-cell voltage-clamp assay; settings: % Inhibition at 1 uM; use-dependent block, 10 Hz; read-out: NAV1.1* UDB-10HZ
T3 construct: expressed in transfected cells; host or cells: HEK293, transient transfection (Qiagen Superfect)

[5] = HEK293, % Inhibition at 1 uM, read-out: Late INa*
[6] = HEK293, percent block of late INa, compound at 1 μM, 10 μM Tefluthrin, read-out: Late INa 1 μM
[7] = tonic block of peak INa, 0.1 Hz, read-out: Peak TB 1 μM
[8] = use-dependent block of peak INa, 3 Hz, read-out: Peak UDB 1 μM

T1 sequence (Q99250 whole entry, canonical isoform): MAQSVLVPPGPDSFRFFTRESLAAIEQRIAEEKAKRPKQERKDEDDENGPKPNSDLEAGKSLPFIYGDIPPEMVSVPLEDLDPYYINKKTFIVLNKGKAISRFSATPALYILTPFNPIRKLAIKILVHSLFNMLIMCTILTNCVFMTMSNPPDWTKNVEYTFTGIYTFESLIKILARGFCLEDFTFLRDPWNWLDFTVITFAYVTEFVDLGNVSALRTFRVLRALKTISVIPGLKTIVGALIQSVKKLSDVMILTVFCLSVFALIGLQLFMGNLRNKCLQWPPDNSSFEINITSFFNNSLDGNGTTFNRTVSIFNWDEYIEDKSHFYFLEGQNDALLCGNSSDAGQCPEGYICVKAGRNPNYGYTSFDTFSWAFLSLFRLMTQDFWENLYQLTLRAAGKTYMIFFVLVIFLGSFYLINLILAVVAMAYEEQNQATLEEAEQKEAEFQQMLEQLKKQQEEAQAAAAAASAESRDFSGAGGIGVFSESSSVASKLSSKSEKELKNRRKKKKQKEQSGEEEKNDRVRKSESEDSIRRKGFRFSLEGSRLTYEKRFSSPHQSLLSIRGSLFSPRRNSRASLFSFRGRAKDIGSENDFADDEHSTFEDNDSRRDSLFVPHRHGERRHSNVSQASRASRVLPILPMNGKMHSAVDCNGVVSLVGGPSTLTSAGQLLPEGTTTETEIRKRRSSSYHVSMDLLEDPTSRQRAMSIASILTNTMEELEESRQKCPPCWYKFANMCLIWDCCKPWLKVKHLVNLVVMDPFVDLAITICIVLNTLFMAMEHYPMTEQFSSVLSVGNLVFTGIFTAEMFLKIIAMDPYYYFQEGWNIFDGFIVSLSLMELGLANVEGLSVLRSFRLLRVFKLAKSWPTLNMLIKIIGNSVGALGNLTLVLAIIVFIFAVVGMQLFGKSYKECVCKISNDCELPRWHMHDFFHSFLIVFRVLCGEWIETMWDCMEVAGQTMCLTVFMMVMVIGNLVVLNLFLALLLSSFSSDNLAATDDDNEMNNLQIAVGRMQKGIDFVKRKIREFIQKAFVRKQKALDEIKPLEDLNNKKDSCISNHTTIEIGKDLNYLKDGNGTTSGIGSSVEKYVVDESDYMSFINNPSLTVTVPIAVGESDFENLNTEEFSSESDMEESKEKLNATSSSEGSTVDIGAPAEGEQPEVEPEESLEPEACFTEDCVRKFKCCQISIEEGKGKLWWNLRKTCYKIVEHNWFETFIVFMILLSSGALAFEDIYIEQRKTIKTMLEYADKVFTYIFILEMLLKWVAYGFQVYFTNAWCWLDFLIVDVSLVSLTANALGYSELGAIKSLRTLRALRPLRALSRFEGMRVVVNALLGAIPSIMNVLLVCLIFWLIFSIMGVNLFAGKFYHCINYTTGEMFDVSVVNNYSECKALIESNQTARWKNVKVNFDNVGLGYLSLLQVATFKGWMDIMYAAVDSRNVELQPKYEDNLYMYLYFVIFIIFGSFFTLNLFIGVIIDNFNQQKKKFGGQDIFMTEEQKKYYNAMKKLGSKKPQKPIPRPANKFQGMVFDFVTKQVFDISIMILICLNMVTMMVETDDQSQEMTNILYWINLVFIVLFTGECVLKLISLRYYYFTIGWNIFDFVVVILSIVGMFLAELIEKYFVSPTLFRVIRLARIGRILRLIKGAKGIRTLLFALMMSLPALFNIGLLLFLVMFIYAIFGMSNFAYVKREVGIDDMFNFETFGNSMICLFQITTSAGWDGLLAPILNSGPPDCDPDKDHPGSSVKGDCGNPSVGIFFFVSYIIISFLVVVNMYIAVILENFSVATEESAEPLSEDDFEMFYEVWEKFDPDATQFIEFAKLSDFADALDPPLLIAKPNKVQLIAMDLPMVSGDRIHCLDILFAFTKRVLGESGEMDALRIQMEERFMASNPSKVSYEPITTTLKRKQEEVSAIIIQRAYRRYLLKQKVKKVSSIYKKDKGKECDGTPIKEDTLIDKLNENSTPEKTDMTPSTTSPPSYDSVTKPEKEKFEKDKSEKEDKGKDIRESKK

Row | Compound | inhibition at 1 µM [1] [%] | inhibition at 1 µM [2, 5] [%] | inhibition at 1 µM [2, 6] [%] | inhibition at 1 µM [3, 7] [%] | inhibition at 1 µM [3, 8] [%] | inhibition at 1 µM [4] [%]
1 | CC1CC=C(c2ccc3c(c2)C(=O)N(Cc2ncccn2)CCO3)CC1 (centres unmarked) [Compound V-5, 7-(4-methylcyclohex-1-enyl)-4-(pyrimidin-2-ylmethyl)-3,4-dihydrobenzo[f][1,4]oxazepin-5(2H)-one] | 3 | 49 | 49 | 5 | 5 | -18
2 | O=C1c2cc(-c3ccc(OC(F)(F)F)cc3)ccc2OCCN1Cc1ccc2ccccc2n1 [II-7, 4-(quinolin-2-ylmethyl)-7-(4-(trifluoromethoxy)phenyl)-3,4-dihydrobenzo[f][1,4]oxazepin-5(2H)-one] | 13 | 34 | 34 |  |  | 0
3 | O=C1c2cc(-c3ccc(OC(F)(F)F)cc3)ccc2OCCN1CC1CC1 [II-10, 4-(cyclopropylmethyl)-7-(4-(trifluoromethoxy)phenyl)-3,4-dihydrobenzo[f][1,4]oxazepin-5(2H)-one] | 9 | 43 | 43 | 9 | 2 | -4
4 | N#Cc1cccc(CN2CCOc3ccc(-c4ccc(OC(F)(F)F)cc4)cc3C2=O)n1 [II-14, 6-((5-oxo-7-(4-(trifluoromethoxy)phenyl)-2,3-dihydrobenzo[f][1,4]oxazepin-4(5H)-yl)methyl)picolinonitrile] | 19 | 47 | 47 | 7 | 6 | 16
5 | COc1cc(OC)nc(CN2CCOc3ccc(-c4ccc(OC(F)(F)F)cc4)cc3C2=O)n1 [II-42, 4-((4,6-dimethoxypyrimidin-2-yl)methyl)-7-(4-(trifluoromethoxy)phenyl)-3,4-dihydrobenzo[f][1,4]oxazepin-5(2H)-one] | 12 | 34 | 34 |  |  | 2
6 | CN1CCOc2ccc(-c3ccc(OC(F)(F)F)cc3)cc2C1=O [II-46, 4-methyl-7-(4-(trifluoromethoxy)phenyl)-3,4-dihydrobenzo[f][1,4]oxazepin-5(2H)-one] | 16 | 25 | 25 |  |  | 2
7 | Cc1cccnc1CN1CCOc2ccc(-c3ccc(OC(F)(F)F)cc3)cc2C1=O [II-75, 4-((3-methylpyridin-2-yl)methyl)-7-(4-(trifluoromethoxy)phenyl)-3,4-dihydrobenzo[f][1,4]oxazepin-5(2H)-one] | 52 | 68 | 68 | 45 | 59 | 35
8 | COc1cccnc1CN1CCOc2ccc(-c3ccc(OC(F)(F)F)cc3)cc2C1=O [II-143, 4-((3-methoxypyridin-2-yl)methyl)-7-(4-(trifluoromethoxy)phenyl)-3,4-dihydrobenzo[f][1,4]oxazepin-5(2H)-one] | 44 | 65 | 65 |  |  | 29
9 | Cc1ccnc(CN2CCOc3cnc(-c4ccc(OC(F)(F)F)cc4)cc3C2=O)n1 [XII-8, 4-((4-methylpyrimidin-2-yl)methyl)-7-(4-(trifluoromethoxy)phenyl)-3,4-dihydropyrido[4,3-f][1,4]oxazepin-5(2H)-one] | 11 | 36 | 36 |  |  | 11
10 | COc1cccnc1CN1CCOc2cnc(-c3ccc(OC(F)(F)F)cc3)cc2C1=O [XII-10, 4-((3-methoxypyridin-2-yl)methyl)-7-(4-(trifluoromethoxy)phenyl)-3,4-dihydropyrido[4,3-f][1,4]oxazepin-5(2H)-one] |  |  | 45 | 13 | 20 | 
11 | O=C1c2cc(-c3ccc(OC(F)(F)F)cc3)ncc2OCCN1Cc1ncccc1F [XII-11, 4-((3-fluoropyridin-2-yl)methyl)-7-(4-(trifluoromethoxy)phenyl)-3,4-dihydropyrido[4,3-f][1,4]oxazepin-5(2H)-one] |  |  | 55 | 25 | 24 | 
12 | O=C1c2cc(Nc3ccc(OC(F)(F)F)cc3)ccc2OCCN1Cc1ccccn1 [XIII-4, 4-(pyridin-2-ylmethyl)-7-(4-(trifluoromethoxy)phenylamino)-3,4-dihydrobenzo[f][1,4]oxazepin-5(2H)-one] |  |  | 51 | 8 | 9 | 
13 | O=C1c2cc(Nc3ccc(C(F)(F)F)cc3)ccc2OCCN1Cc1ccccn1 [XIII-6, 4-(pyridin-2-ylmethyl)-7-(4-(trifluoromethyl)phenylamino)-3,4-dihydrobenzo[f][1,4]oxazepin-5(2H)-one] |  |  | 60 | 8 | 8 | 
